Reference: patent publication US20240108006A1, “PESTICIDALLY ACTIVE HETEROAROMATIC COMPOUNDS” (SYNGENTA CROP PROTECTION AG, priority 2021, published 2024)

What was measured:
Format in all cases: in vivo
[1] = tested on: Plutella xylostella; experiment: Example B8: Plutella xylostella (diamond back moth), artificial diet 24-well, eggs; settings: 192 h, application rate of 200 ppm, 8 days after infestation, read-out: effect in at least one of the two categories (mortality or growth inhibition)
Outline: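 Artificial diet in 24-well plates treated with aqueous dilutions of DMSO stock (10,000 ppm stock) and dried, then infested with Plutella eggs. Mortality and growth inhibition scored versus untreated samples 8 days after infestation.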

[2] = tested on: Spodoptera littoralis; experiment: Example B9: Spodoptera littoralis (Egyptian cotton leaf worm), cotton leaf discs, L1 larvae; settings: foliar, 72 h, application rate of 200 ppm, 3 days after infestation, read-out: control in at least one of the three categories (mortality, anti-feedant effect, or growth inhibition)
Method: Example B9: Spodoptera littoralis (Egyptian Cotton Leaf Worm)
Cotton leaf discs were placed onto agar in 24-well microtiter plates and sprayed with aqueous test solutions prepared from 10,000 ppm DMSO stock solutions. After drying the leaf discs were infested with five L1 larvae. The samples were assessed for mortality, anti-feeding effect, and growth inhibition in comparison to untreated samples 3 days after infestation. Control of Spodoptera littoralis by a test sample is given when at least one of the categories mortality, anti-feedant effect, and growth inhibition is higher than the untreated sample.

[3] = tested on: Chilo suppressalis; experiment: Example B1: Chilo suppressalis (striped rice stemborer), artificial diet, L2 larvae; settings: 144 h, application rate of 200 ppm, 6 days after infestation, read-out: control in at least one of the three categories (mortality, anti-feedant effect, or growth inhibition)
Outline: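 Artificial diet was treated with aqueous test solutions made from 10,000 ppm DMSO stocks, dried, then infested with L2 larvae (6-8 per well). Mortality, anti-feeding effect and growth inhibition were scored against untreated samples 6 days after infestation, and control was counted when any category exceeded untreated.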

CNC(=O)c1cnc(-n2ncnc2[C@H](C)NC(=O)Nc2cc(C(F)(F)F)c(Cl)cc2Cl)s1 [Example P395, 2-[5-[(1S)-1-[[2,4-dichloro-5-(trifluoromethyl)phenyl]carbamoyl-amino]ethyl]-1,2,4-triazol-1-yl]-N-methyl-thiazole-5-carboxamide]
≥ 80%: percent effect (mortality or growth inhibition) at 200 ppm [1] | percent control (mortality, anti-feedant effect or growth inhibition) at 200 ppm [2] | percent control (mortality, anti-feedant effect or growth inhibition) at 200 ppm [3]

C[C@H](NC(=O)Nc1cc(Br)c(F)cc1Cl)c1ncnn1-c1ncccn1 [Example P388, 1-(5-bromo-2-chloro-4-fluoro-phenyl)-3-[(1S)-1-(2-pyrimidin-2-yl-1,2,4-triazol-3-yl)ethyl]urea]
≥ 80%: percent effect (mortality or growth inhibition) at 200 ppm [1] | percent control (mortality, anti-feedant effect or growth inhibition) at 200 ppm [2] | percent control (mortality, anti-feedant effect or growth inhibition) at 200 ppm [3]

CC(NC(=O)Nc1cc(C(F)(F)F)c(Cl)cc1Br)c1nccnc1-c1ncccn1 (stereo not drawn) [Example P240, 1-[2-bromo-4-chloro-5-(trifluoromethyl)phenyl]-3-[1-(3-pyrimidin-2-ylpyrazin-2-yl)ethyl]urea]
≥ 80%: percent effect (mortality or growth inhibition) at 200 ppm [1] | percent control (mortality, anti-feedant effect or growth inhibition) at 200 ppm [2] | percent control (mortality, anti-feedant effect or growth inhibition) at 200 ppm [3]

C[C@H](NC(=O)Nc1ccc(C(F)(F)F)cc1I)c1ncnn1-c1ccc(C#N)cn1 [Example P256, 1-[(1S)-1-[2-(5-cyano-2-pyridyl)-1,2,4-triazol-3-yl]ethyl]-3-[2-iodo-4-(trifluoromethyl)phenyl]urea]
≥ 80%: percent effect (mortality or growth inhibition) at 200 ppm [1] | percent control (mortality, anti-feedant effect or growth inhibition) at 200 ppm [2] | percent control (mortality, anti-feedant effect or growth inhibition) at 200 ppm [3]

C[C@H](NC(=O)Nc1cnc(Br)cc1Br)c1nccnc1-c1ccc(C#N)cn1 [Example P248, 1-[(1S)-1-[3-(5-cyano-2-pyridyl)pyrazin-2-yl]ethyl]-3-(4,6-dibromo-3-pyridyl)urea]
≥ 80%: percent effect (mortality or growth inhibition) at 200 ppm [1] | percent control (mortality, anti-feedant effect or growth inhibition) at 200 ppm [2] | percent control (mortality, anti-feedant effect or growth inhibition) at 200 ppm [3]

COc1cc(NC(=O)N[C@@H](C)c2ncnn2-c2ncccn2)c(Cl)cc1Cl [Example P265, 1-(2,4-dichloro-5-methoxy-phenyl)-3-[(1S)-1-(2-pyrimidin-2-yl-1,2,4-triazol-3-yl)ethyl]urea]
≥ 80%: percent effect (mortality or growth inhibition) at 200 ppm [1] | percent control (mortality, anti-feedant effect or growth inhibition) at 200 ppm [2] | percent control (mortality, anti-feedant effect or growth inhibition) at 200 ppm [3]

C[C@H](NC(=O)Nc1cc(O)c(Cl)cc1Cl)c1ncnn1-c1ncccn1 [Example P237, 1-(2,4-dichloro-5-hydroxy-phenyl)-3-[(1S)-1-(2-pyrimidin-2-yl-1,2,4-triazol-3-yl)ethyl]urea]
≥ 80%: percent effect (mortality or growth inhibition) at 200 ppm [1] | percent control (mortality, anti-feedant effect or growth inhibition) at 200 ppm [2] | percent control (mortality, anti-feedant effect or growth inhibition) at 200 ppm [3]

CC(NC(=O)Nc1ccc(C(F)(F)F)cc1I)c1nccnc1-n1nccn1 (stereo not drawn) [Example P263, 1-[2-iodo-4-(trifluoromethyl)phenyl]-3-[1-[3-(triazol-2-yl)pyrazin-2-yl]ethyl]urea]
≥ 80%: percent effect (mortality or growth inhibition) at 200 ppm [1] | percent control (mortality, anti-feedant effect or growth inhibition) at 200 ppm [2] | percent control (mortality, anti-feedant effect or growth inhibition) at 200 ppm [3]

C[C@H](NC(=O)Nc1cc(OC(F)(F)C(F)F)c(Cl)cc1Cl)c1ncnn1-c1ncc(C(=O)N(C)C)s1 [Example P396, 2-[5-[(1S)-1-[[2,4-dichloro-5-(1,1,2,2-tetrafluoroethoxy)phenyl]carbamoyl-amino]ethyl]-1,2,4-triazol-1-yl]-N,N-dimethyl-thiazole-5-carboxamide]
≥ 80%: percent effect (mortality or growth inhibition) at 200 ppm [1] | percent control (mortality, anti-feedant effect or growth inhibition) at 200 ppm [2] | percent control (mortality, anti-feedant effect or growth inhibition) at 200 ppm [3]

CC(NC(=O)Nc1ccc(C(F)(F)F)cc1I)c1nccnc1-c1ncccn1 (stereo not drawn) [Example P243, 1-[2-iodo-4-(trifluoromethyl)phenyl]-3-[1-(3-pyrimidin-2-ylpyrazin-2-yl)ethyl]urea]
≥ 80%: percent effect (mortality or growth inhibition) at 200 ppm [1] | percent control (mortality, anti-feedant effect or growth inhibition) at 200 ppm [2] | percent control (mortality, anti-feedant effect or growth inhibition) at 200 ppm [3]

C[C@H](NC(=O)Nc1cc(C(F)(F)F)ccc1Br)c1ncnn1-c1ncccn1 [Example P70, 1-[2-bromo-5-(trifluoromethyl)phenyl]-3-[(1S)-1-(2-pyrimidin-2-yl-1,2,4-triazol-3-yl)ethyl]urea]
≥ 80%: percent effect (mortality or growth inhibition) at 200 ppm [1] | percent control (mortality, anti-feedant effect or growth inhibition) at 200 ppm [2] | percent control (mortality, anti-feedant effect or growth inhibition) at 200 ppm [3]

C[C@H](NC(=O)Nc1cc(F)c(Br)cc1Cl)c1ncnn1-c1ncccn1 [Example P314, 1-(4-bromo-2-chloro-5-fluoro-phenyl)-3-[(1S)-1-(2-pyrimidin-2-yl-1,2,4-triazol-3-yl)ethyl]urea]
≥ 80%: percent effect (mortality or growth inhibition) at 200 ppm [1] | percent control (mortality, anti-feedant effect or growth inhibition) at 200 ppm [2] | percent control (mortality, anti-feedant effect or growth inhibition) at 200 ppm [3]

CC(NC(=O)Nc1cnc(C(F)(F)F)cc1Cl)c1nccnc1-n1nccn1 (stereo not drawn) [Example P264, 1-[4-chloro-6-(trifluoromethyl)-3-pyridyl]-3-[1-[3-(triazol-2-yl)pyrazin-2-yl]ethyl]urea]
≥ 80%: percent effect (mortality or growth inhibition) at 200 ppm [1] | percent control (mortality, anti-feedant effect or growth inhibition) at 200 ppm [2] | percent control (mortality, anti-feedant effect or growth inhibition) at 200 ppm [3]

C[C@H](NC(=O)Nc1ccc(Br)cc1OC(F)F)c1nccnc1-c1ccc(C#N)cn1 [Example P247, 1-[4-bromo-2-(difluoromethoxy)phenyl]-3-[(1S)-1-[3-(5-cyano-2-pyridyl)pyrazin-2-yl]ethyl]urea]
≥ 80%: percent effect (mortality or growth inhibition) at 200 ppm [1] | percent control (mortality, anti-feedant effect or growth inhibition) at 200 ppm [2] | percent control (mortality, anti-feedant effect or growth inhibition) at 200 ppm [3]

C[C@H](NC(=O)Nc1ccc(C(F)(F)F)cc1I)c1nccnc1-c1ccc(C#N)cn1 [Example P249, 1-[(1S)-1-[3-(5-cyano-2-pyridyl)pyrazin-2-yl]ethyl]-3-[2-iodo-4-(trifluoromethyl)phenyl]urea]
≥ 80%: percent effect (mortality or growth inhibition) at 200 ppm [1] | percent control (mortality, anti-feedant effect or growth inhibition) at 200 ppm [2] | percent control (mortality, anti-feedant effect or growth inhibition) at 200 ppm [3]

C[C@H](NC(=O)Nc1cc(Br)c(Cl)cc1F)c1ncnn1-c1ncccn1 [Example P300, 1-(5-bromo-4-chloro-2-fluoro-phenyl)-3-[(1S)-1-(2-pyrimidin-2-yl-1,2,4-triazol-3-yl)ethyl]urea]
≥ 80%: percent effect (mortality or growth inhibition) at 200 ppm [1] | percent control (mortality, anti-feedant effect or growth inhibition) at 200 ppm [2] | percent control (mortality, anti-feedant effect or growth inhibition) at 200 ppm [3]

C[C@H](NC(=O)Nc1cc(C(F)(F)F)c(Cl)cc1Br)c1ncnn1-c1ccc(C#N)cn1 [Example P253, 1-[2-bromo-4-chloro-5-(trifluoromethyl)phenyl]-3-[(1S)-1-[2-(5-cyano-2-pyridyl)-1,2,4-triazol-3-yl]ethyl]urea]
≥ 80%: percent effect (mortality or growth inhibition) at 200 ppm [1] | percent control (mortality, anti-feedant effect or growth inhibition) at 200 ppm [2] | percent control (mortality, anti-feedant effect or growth inhibition) at 200 ppm [3]

C[C@H](NC(=O)Nc1ccc(Cl)c(C(F)(F)F)c1)c1nccnc1-c1ccc(C#N)cn1 [Example P7, 1-[4-chloro-3-(trifluoromethyl)phenyl]-3-[(1S)-1-[3-(5-cyano-2-pyridyl)pyrazin-2-yl]ethyl]urea]
≥ 80%: percent effect (mortality or growth inhibition) at 200 ppm [1] | percent control (mortality, anti-feedant effect or growth inhibition) at 200 ppm [2] | percent control (mortality, anti-feedant effect or growth inhibition) at 200 ppm [3]

C[C@H](NC(=S)Nc1ccc(C(F)(F)F)cc1Cl)c1ncnn1-c1ncccn1 [Example P129, 1-[2-chloro-4-(trifluoromethyl)phenyl]-3-[(1S)-1-(2-pyrimidin-2-yl-1,2,4-triazol-3-yl)ethyl]thiourea]
≥ 80%: percent effect (mortality or growth inhibition) at 200 ppm [1] | percent control (mortality, anti-feedant effect or growth inhibition) at 200 ppm [2] | percent control (mortality, anti-feedant effect or growth inhibition) at 200 ppm [3]

C[C@H](NC(=O)Nc1cnc(Cl)cc1I)c1ncnn1-c1ncccn1 [Example P271, 1-(6-chloro-4-iodo-3-pyridyl)-3-[(1S)-1-(2-pyrimidin-2-yl-1,2,4-triazol-3-yl)ethyl]urea]
≥ 80%: percent effect (mortality or growth inhibition) at 200 ppm [1] | percent control (mortality, anti-feedant effect or growth inhibition) at 200 ppm [2] | percent control (mortality, anti-feedant effect or growth inhibition) at 200 ppm [3]

C[C@H](NC(=O)Nc1ccc(Br)cc1I)c1ncnn1-c1ncccn1 [Example P76, 1-(4-bromo-2-iodo-phenyl)-3-[(1S)-1-(2-pyrimidin-2-yl-1,2,4-triazol-3-yl)ethyl]urea]
≥ 80%: percent effect (mortality or growth inhibition) at 200 ppm [1] | percent control (mortality, anti-feedant effect or growth inhibition) at 200 ppm [2] | percent control (mortality, anti-feedant effect or growth inhibition) at 200 ppm [3]

C[C@H](NC(=O)Nc1cc(Cl)c(Cl)cc1F)c1ncnn1-c1ncccn1 [Example P118, 1-(4,5-dichloro-2-fluoro-phenyl)-3-[(1S)-1-(2-pyrimidin-2-yl-1,2,4-triazol-3-yl)ethyl]urea]
≥ 80%: percent effect (mortality or growth inhibition) at 200 ppm [1] | percent control (mortality, anti-feedant effect or growth inhibition) at 200 ppm [2] | percent control (mortality, anti-feedant effect or growth inhibition) at 200 ppm [3]
